Assay results reported in ChEMBL document CHEMBL4811314, “Synthesis, biochemical, and biological evaluation of C2 linkage derivatives of amino sugars, inhibitors of glucokinase from Trypanosoma cruzi” (Bioorg Med Chem Lett, 2021).

What was measured:
Hexokinase-4 = biological target: T1, Hexokinase-4 (Homo sapiens, UniProt P35557); experiment: Inhibition of human hexokinase-4 at 20 uM relative to control
T1 sequence (P35557 whole entry): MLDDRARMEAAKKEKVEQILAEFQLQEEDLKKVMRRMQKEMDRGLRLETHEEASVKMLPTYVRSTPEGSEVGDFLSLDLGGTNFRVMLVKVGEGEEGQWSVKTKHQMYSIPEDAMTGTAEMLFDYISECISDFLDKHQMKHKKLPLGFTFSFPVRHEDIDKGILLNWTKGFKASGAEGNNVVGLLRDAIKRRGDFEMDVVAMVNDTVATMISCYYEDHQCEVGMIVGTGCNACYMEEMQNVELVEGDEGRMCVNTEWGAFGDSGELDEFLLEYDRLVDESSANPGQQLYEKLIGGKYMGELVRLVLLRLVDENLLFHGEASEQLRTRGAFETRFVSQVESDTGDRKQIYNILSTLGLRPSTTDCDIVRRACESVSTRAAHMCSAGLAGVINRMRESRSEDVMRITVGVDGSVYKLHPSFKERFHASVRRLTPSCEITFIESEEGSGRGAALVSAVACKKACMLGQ

Saccharomyces cerevisiae = experiment: Inhibition of Saccharomyces cerevisiae G6PDH at 20 uM relative to control
[1] = Inhibition of His6-tagged Trypanosoma cruzi glucokinase using D-glucose and ATP as substrates
Trypanosoma cruzi [2] = experiment: Antitrypanosomal activity against Trypanosoma cruzi Tulahuen amastigotes infected in mouse NIH/3T3 cells assessed as parasite growth inhibition incubated for 4 days in glucose rich DMEM medium; format: functional, organism-based; conditions: NIH3T3, 96 h
[3] = Inhibition of Trypanosoma cruzi glucokinase
Trypanosoma cruzi [4] = experiment: Antitrypanosomal activity against intracellular Trypanosoma cruzi Tulahuen […] infected in mouse NIH/3T3 cells assessed as parasite growth inhibition; format: functional, organism-based; conditions: NIH3T3
[5] = Competitive inhibition of Trypanosoma cruzi glucokinase using D-glucose as substrate in presence of ATP by Lineweaver-Burk plot analysis
Trypanosoma cruzi [6] = experiment: Competitive inhibition of Trypanosoma cruzi glucokinase assessed as Km using varying levels of D-glucose as substrate in presence of ATP by Lineweaver-Burk plot analysis
Trypanosoma cruzi [7] = experiment: Competitive inhibition of Trypanosoma cruzi glucokinase assessed as Vmax using varying levels of D-glucose as substrate in presence of ATP by Lineweaver-Burk plot analysis

Row | SMILES | inhibition at 20 µM (Hexokinase-4) | inhibition (Saccharomyces cerevisiae) | IC50 (Trypanosoma cruzi [2]) | Ki [3] | IC50 (Trypanosoma cruzi [4]) | Ki [5] | Km (Trypanosoma cruzi [6]) | Vmax (Trypanosoma cruzi [7]) | Ki [1]
1 | O=C(N[C@H]1C(O)O[C@H](CO)[C@@H](O)[C@@H]1O)c1ccccc1 (stereo partly specified) | 39.2% | 0.5% | 16.1 µM |  |  |  |  |  | 32 µM
2 | O=C(N[C@H]1C(O)O[C@H](CO)[C@H](O)[C@@H]1O)c1ccccc1 (stereo partly specified) | 37.8% | 0% |  | > 500 µM | 55.3 µM |  |  |  | 
3 | O=C(N[C@H]1C(O)O[C@H](CO)[C@@H](O)[C@@H]1O)c1cc2ccccc2o1 (stereo partly specified) | 25.2% | 0% |  | 107 µM | 27.2 µM | 107 µM | 890 µM | 8.1 10^-5M/min | 
4 | O=C(N[C@@H]1C(O)O[C@H](CO)[C@@H](O)[C@@H]1O)c1ccc(CCl)cc1 (stereo partly specified) | 28.1% | 0% |  | > 500 µM | 38.4 µM |  |  |  | 
5 | O=C(Cn1ccnc1[N+](=O)[O-])NCc1ccccc1 [BENZNIDAZOLE] |  |  | 1.12 µM |  |  |  |  |  | 
6 | O=C(N[C@@H]1C(O)O[C@H](CO)[C@@H](O)[C@@H]1O)c1ccccc1 (stereo partly specified) | 55.5% | 0% |  | > 500 µM | 43.5 µM |  |  |  | 
7 | O=C(N[C@H]1C(O)O[C@H](CO)[C@H](O)[C@@H]1O)c1ccc(CCl)cc1 (stereo partly specified) | 8.3% | 0% |  | > 500 µM | 37.9 µM |  |  |  | 
8 | O=C(N[C@@H]1C(O)O[C@H](CO)[C@@H](O)[C@@H]1O)c1cc2ccccc2o1 (stereo partly specified) | 12.4% | 0% |  | > 500 µM | 42.5 µM |  |  |  | 
9 | C[C@@H]1[C@H](O)[C@@H](C)/C=C/C=C/C=C/C=C/C=C/C=C/C=C/[C@H](O[C@@H]2O[C@H](C)[C@@H](O)[C@H](N)[C@@H]2O)C[C@@H]2O[C@](O)(C[C@@H](O)C[C@@H](O)[C@H](O)CC[C@@H](O)C[C@@H](O)CC(=O)O[C@H]1C)C[C@H](O)[C@H]2C(=O)O [AMPHOTERICIN B] |  |  |  |  | 1.85 µM |  |  |  | 
10 | O=C(N[C@H]1C(O)O[C@H](CO)[C@@H](O)[C@@H]1O)OCc1ccccc1 (stereo partly specified) | 2% | 0% | 48.7 µM |  |  |  |  |  | 0.71 µM
11 | O=C(N[C@H]1C(O)O[C@H](CO)[C@H](O)[C@@H]1O)c1cc2ccccc2o1 (stereo partly specified) | 36.5% | 0% |  | > 500 µM | 66.6 µM |  |  |  | 
12 | O=C(N[C@H]1C(O)O[C@H](CO)[C@@H](O)[C@@H]1O)c1ccc(CCl)cc1 (stereo partly specified) | 35.8% | 0% |  | > 500 µM | 52.9 µM |  |  |  | 

More lines, main results first:

Row | inhibition at 20 µM (Hexokinase-4) | inhibition (Saccharomyces cerevisiae) | IC50 (Trypanosoma cruzi [2]) | Ki [3] | IC50 (Trypanosoma cruzi [4]) | Ki [5] | Km (Trypanosoma cruzi [6]) | Vmax (Trypanosoma cruzi [7]) | SMILES | Ki [1]
13 | 48.8% | 0% |  | 481 µM | > 80 µM |  |  |  | Cc1ccc(C(=O)N[C@@H]2C(O)O[C@H](CO)[C@@H](O)[C@@H]2O)o1 (stereo partly specified) | 
14 | 29.8% | 0% |  | > 500 µM | 19.9 µM |  |  |  | O=C(N[C@H]1C(O)O[C@H](CO)[C@H](O)[C@@H]1O)c1cccc(Br)c1 (stereo partly specified) | 
15 | 41.2% | 0% |  | 15.2 µM | 49.9 µM | 15.2 µM | 840 µM | 6.3 10^-5M/min | O=C(N[C@H]1C(O)O[C@H](CO)[C@@H](O)[C@@H]1O)c1ccoc1 (stereo partly specified) | 
16 | 27% | 0% |  | 320 µM | 38.4 µM |  |  |  | O=C(N[C@@H]1C(O)O[C@H](CO)[C@@H](O)[C@@H]1O)c1cccc(Br)c1 (stereo partly specified) | 
17 | 31.2% | 0% |  | 18 µM | 66.2 µM |  |  |  | O=C(N[C@H]1C(O)O[C@H](CO)[C@@H](O)[C@@H]1O)c1cccc(Br)c1 (stereo partly specified) | 
18 | 31.6% | 0% |  | > 500 µM | 67.5 µM |  |  |  | O=C(N[C@@H]1C(O)O[C@H](CO)[C@@H](O)[C@@H]1O)c1ccoc1 (stereo partly specified) | 
19 | 47.2% | 0% |  | > 500 µM | 36.4 µM |  |  |  | O=C(N[C@H]1C(O)O[C@H](CO)[C@H](O)[C@@H]1O)c1ccoc1 (stereo partly specified) | 
